The record followed here is ChEMBL document CHEMBL1152084 (Bioorg Med Chem Lett, 1997).

In assay [1] the target is Platelet-derived growth factor receptor beta (Rattus norvegicus, UniProt Q05030). As to the kind of experiment: Inhibition of PDGF-BB induced PDGF-B receptor autophosphorylation in rat mesangial cells. It is filed as functional, cell-based.
In assay [2] the target is Cyclin-dependent kinase 1 (Homo sapiens, UniProt P06493). As to the kind of experiment: Inhibition of Cdc2.
Assay [3] has as its target Mitogen-activated protein kinase; ERK1/ERK2 (Homo sapiens, UniProt P27361+P28482). As to the kind of experiment: Inhibition of Mitogen-activated protein kinase. Format: protein assay.
Assay [4] addresses cAMP-dependent protein kinase (PKA) (Homo sapiens, UniProt P22694+P17612+P22612). The assay can be described thus: Inhibition of Protein kinase A. It is filed as protein assay.
For the next assay, the target named is Protein kinase C (PKC). As to the kind of experiment: Inhibition of Protein kinase C. It is filed as protein assay.
The target in assay [5] is Proto-oncogene tyrosine-protein kinase Src (Homo sapiens, UniProt P12931). The assay can be described thus: Inhibition of c-SRC.
For assay [6], the target named is Epidermal growth factor receptor (Homo sapiens, UniProt P00533). The assay can be described thus: Inhibition of epidermal growth factor receptor (EGF-R) autophosphorylation in A431 cells. Format: functional, cell-based, A-431.

The structures appear in SMILES notation.

Chain of Platelet-derived growth factor receptor beta (Q05030 whole entry): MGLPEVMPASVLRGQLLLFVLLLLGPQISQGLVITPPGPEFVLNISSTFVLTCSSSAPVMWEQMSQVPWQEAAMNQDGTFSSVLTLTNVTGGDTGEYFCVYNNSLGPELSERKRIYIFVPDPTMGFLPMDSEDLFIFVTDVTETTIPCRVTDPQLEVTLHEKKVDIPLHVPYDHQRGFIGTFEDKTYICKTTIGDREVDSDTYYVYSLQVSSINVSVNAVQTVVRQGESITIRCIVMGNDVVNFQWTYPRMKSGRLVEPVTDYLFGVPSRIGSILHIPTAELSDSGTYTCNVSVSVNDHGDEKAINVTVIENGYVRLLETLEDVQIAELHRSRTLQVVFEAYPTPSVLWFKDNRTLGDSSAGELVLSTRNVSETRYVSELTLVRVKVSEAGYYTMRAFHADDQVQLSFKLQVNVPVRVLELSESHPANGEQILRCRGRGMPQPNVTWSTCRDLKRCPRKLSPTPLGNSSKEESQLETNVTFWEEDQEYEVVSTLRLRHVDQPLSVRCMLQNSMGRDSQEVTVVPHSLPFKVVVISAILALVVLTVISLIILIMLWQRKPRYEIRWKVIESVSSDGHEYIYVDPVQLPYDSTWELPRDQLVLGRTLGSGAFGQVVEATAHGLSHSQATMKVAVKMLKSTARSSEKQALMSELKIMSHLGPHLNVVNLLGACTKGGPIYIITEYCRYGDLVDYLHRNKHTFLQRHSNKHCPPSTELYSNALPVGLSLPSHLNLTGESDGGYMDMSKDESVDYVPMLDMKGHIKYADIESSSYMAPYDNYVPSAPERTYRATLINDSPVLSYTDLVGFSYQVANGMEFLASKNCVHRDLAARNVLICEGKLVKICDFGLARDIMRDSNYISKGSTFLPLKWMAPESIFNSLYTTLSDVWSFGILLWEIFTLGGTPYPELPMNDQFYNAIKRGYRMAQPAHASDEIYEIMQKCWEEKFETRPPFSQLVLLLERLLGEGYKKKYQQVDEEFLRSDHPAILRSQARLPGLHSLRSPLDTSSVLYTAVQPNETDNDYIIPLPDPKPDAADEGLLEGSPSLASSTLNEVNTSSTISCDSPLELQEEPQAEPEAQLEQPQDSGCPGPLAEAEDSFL
Chain of Epidermal growth factor receptor (P00533 whole entry): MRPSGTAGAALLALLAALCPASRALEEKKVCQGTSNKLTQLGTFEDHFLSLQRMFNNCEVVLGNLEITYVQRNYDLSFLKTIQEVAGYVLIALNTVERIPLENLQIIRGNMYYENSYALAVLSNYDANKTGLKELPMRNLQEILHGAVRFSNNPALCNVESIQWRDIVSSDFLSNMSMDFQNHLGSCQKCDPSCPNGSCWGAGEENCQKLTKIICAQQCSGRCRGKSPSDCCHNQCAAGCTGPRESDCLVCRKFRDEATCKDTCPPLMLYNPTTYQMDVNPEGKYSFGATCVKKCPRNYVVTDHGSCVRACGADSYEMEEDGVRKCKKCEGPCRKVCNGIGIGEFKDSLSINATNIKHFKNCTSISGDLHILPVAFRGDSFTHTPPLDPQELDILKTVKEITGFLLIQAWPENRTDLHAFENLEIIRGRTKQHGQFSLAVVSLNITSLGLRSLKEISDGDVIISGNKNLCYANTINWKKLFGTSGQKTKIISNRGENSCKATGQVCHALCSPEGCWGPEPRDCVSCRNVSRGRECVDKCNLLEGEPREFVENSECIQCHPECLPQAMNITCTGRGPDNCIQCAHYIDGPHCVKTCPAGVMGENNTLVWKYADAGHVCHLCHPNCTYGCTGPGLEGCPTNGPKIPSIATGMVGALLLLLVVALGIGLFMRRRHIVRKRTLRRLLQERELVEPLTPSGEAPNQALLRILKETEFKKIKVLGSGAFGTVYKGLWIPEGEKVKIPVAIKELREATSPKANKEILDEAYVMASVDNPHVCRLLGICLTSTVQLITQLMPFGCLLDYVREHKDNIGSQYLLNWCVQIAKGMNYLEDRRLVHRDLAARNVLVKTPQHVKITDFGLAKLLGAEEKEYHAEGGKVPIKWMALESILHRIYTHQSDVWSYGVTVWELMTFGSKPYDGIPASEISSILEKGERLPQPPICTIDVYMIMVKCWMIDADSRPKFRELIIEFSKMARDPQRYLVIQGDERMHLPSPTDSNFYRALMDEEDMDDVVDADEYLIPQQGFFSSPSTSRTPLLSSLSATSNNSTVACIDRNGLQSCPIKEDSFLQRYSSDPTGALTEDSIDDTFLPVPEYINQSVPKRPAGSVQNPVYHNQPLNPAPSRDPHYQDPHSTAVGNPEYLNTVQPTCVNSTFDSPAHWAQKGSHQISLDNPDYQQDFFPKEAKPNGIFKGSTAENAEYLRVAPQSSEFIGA
Chain of Proto-oncogene tyrosine-protein kinase Src (P12931 2-536 limits assumed): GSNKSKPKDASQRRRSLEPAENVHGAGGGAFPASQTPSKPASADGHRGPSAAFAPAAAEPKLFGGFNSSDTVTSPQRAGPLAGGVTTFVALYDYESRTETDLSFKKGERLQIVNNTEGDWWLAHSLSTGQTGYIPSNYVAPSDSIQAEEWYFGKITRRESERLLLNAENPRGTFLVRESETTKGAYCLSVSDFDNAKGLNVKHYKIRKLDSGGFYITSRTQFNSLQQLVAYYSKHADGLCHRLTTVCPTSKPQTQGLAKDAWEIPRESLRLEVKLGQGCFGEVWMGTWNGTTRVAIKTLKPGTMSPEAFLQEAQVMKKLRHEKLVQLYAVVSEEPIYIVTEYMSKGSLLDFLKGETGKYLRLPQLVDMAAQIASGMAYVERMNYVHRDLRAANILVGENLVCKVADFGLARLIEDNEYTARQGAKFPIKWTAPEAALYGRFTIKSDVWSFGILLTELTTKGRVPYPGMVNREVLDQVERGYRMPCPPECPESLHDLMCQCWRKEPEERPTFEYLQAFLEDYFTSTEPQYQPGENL
Chain of Cyclin-dependent kinase 1 (P06493 whole entry): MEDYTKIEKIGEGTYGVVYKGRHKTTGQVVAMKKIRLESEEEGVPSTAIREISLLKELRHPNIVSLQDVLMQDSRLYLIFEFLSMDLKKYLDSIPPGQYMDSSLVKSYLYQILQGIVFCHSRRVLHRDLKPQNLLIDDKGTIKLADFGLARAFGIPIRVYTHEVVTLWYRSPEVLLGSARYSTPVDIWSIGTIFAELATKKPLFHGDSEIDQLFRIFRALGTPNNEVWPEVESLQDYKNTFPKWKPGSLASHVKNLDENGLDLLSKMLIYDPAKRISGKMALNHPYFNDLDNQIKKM

Regarding `COc1ccc(Oc2ccnc3cc(OC)c(OC)cc23)cc1`, in assay [1], the IC50 was 1.9 µM. In assay [1], `CCOc1cccc(Oc2ccnc3cc(OC)c(OC)cc23)c1` came in with an IC50 of 12.9 µM.

In the case of `COc1cc2nccc(Oc3ccccc3)c2cc1OC`, inhibition in assay [1] was half-maximal at 0.76 µM (IC50). On to `COc1cc(OC)cc(Oc2ccnc3cc(OC)c(OC)cc23)c1`, for which, in assay [1], half-maximal inhibition (IC50) required 5.5 µM. The same measure, in the same setting: next, `COc1cc2nccc(Oc3ccccc3OC)c2cc1OC`: 0.6 µM; `COc1cc2nccc(Nc3cccc(Br)c3)c2cc1OC`: 21.5 µM. Regarding `COc1ccc(Oc2ccnc3cc(OC)c(OC)cc23)cc1OC`, the IC50 in assay [2] was greater than 10 µM; in assay [3], greater than 10 µM; in assay [4], greater than 10 µM; at Protein kinase C (PKC), greater than 20 µM; in assay [5], greater than 10 µM. In assay [1], `COc1cc2nccc(Oc3cccc(F)c3)c2cc1OC` gave an IC50 of 1.5 µM. On the same count and under the same terms, with `CCc1cccc(Oc2ccnc3cc(OC)c(OC)cc23)c1` the figure was 8.4 µM.

In the case of `COc1ccc(Nc2ccnc3cc(OC)c(OC)cc23)cc1OC`, the IC50 in assay [6] came out at 80.5 µM; in assay [1] it was 2.6 µM. As for `COc1cc2nccc(Oc3cccc(O)c3)c2cc1OC`, the IC50 in assay [1] was found to be 0.56 µM.

Regarding `COc1ccc(Oc2ncnc3cc(OC)c(OC)cc23)cc1OC`, the IC50 in assay [6] was greater than 100 µM; in assay [1] it was 0.57 µM.

The molecule `COc1cc2nccc(Oc3cccc(OC)c3OC)c2cc1OC` came in with an IC50 in assay [1] of 4.4 µM. As for `COc1cc2ncnc(Oc3cccc(Br)c3)c2cc1OC`, the values for the IC50 in assay [6] and in assay [1] were 0.07 µM and 14.8 µM, respectively. As for `COc1cc2nccc(Oc3cccc(Br)c3)c2cc1OC`, the half-inhibitory concentration (IC50) stood at 2.5 µM in assay [6] and 8.4 µM in assay [1]. As for `COc1cc2nccc(Oc3cccc(C)c3)c2cc1OC`, the IC50 in assay [1] worked out at 6.9 µM.

On to `COc1cc2nccc(Oc3cccc([N+](=O)[O-])c3)c2cc1OC`, for which, in assay [1], half-maximal inhibition (IC50) required 0.7 µM. Same read-out and setting: with `COc1cc2nccc(Oc3cccc(N)c3)c2cc1OC` the figure was 1.7 µM.

With `COc1ccc(Nc2ncnc3cc(OC)c(OC)cc23)cc1OC`, the IC50 is 2.8 µM in assay [6] and 4.5 µM in assay [1]. With `COc1cc2nccc(Oc3c(OC)cccc3OC)c2cc1OC`, the IC50 in assay [1] is 69.3 µM.
